US12251366B1, “Sulforaphane-cysteine for wound healing in diabetic subjects” (KUWAIT UNIVERSITY, priority 2024, dated 2025)

Test system: TNF-α
Experiment: Cytokine ELISA, LPS-stimulated peritoneal macrophages (TNF-α)
Format: cell-based, mouse
Details: LPS-stimulated macrophages, mouse model of type 2 diabetes
From the text: This was exemplified in the current study by the ability of SFN-CYS to inhibit lipopolysaccharide (LPS)-induced peritoneal macrophages and bone marrow-derived macrophages to produce tumor necrosis factor-α (TNF-α) and interlukin-6 (IL-6). TNF-α and IL-6 are two of the major inflammatory mediators that contribute to the pathogenesis of low-grade inflammation; a phenomenon which is commonly associated with the diabetic state. […] Pre-treatment with SFN-Cys inhibited the expression of LPS-induced TNF-α and IL-6 protein at a therapeutic dose of 1.5 μM (FIGS. 1A and 1B).
Thioglycollate-elicited mouse peritoneal macrophages were prepared from C57BL (8-10 weeks old) and cultured in RPMI 1640 with 10% (v/v) FCS Bone marrow-derived macrophages were generated in RPMI medium containing M-CSF (10 ng/mL) according to previously published procedure. For cytokine ELISA assay, cells were seeded at 5×10^5 in 12-well plates, whereas for mRNA expression, the cells were seeded at […]. LPS and used at a dose of 100 ng/mL. Similarly. SFN-Cys was used at a concentration of 1.5 umol/L.
For cytokine ELISA, supernatants from cultured macrophages were collected in response to treatment with SFN and SFN-Cys for 6 h. The total TNF-α and TL-6 were measured by enzyme-linked immunosorbent assay (ELISA) using kits (R&D system, USA) according to the manufacturer's protocols.

SMILES: C[S+]([O-])CCCCN=C=S (stereo not shown) [SFN, Sulforaphane]
- anti-inflammatory activity (overall, SFN-Cys compared with SFN): exhibited anti-inflammatory and antioxidant activities
